Here are results for one compound from patent US20090170847A1, “Imidazopyridine Derivatives Inhibiting Protein Kinase Activity, Method for the Preparation Thereof and Pharmaceutical Composition Containing Same” (priority 2006, published 2009).

What all share (assay type): biochemical
One assay addresses human GSK-3β (Homo sapiens, UniProt P49841). The assay can be described thus: GSK-3β enzyme inhibition (32P-ATP, phospho-CREB peptide, filter paper). Conditions: 100 μM ATP, 30° C., 1 hour. As to the method: GSK-3β was prepared by a gene recombination method.
First, primers corresponding to 5′-end and 3′-end of polynucleotide encoding human GSK-3β were designed and synthesized from nucleotide sequence of human GSK-3β (GenBank Reg. No. L33801). Then, the primers were amplified by PCR (polymerase chain reaction) in which a human DNA sequence was employed as a template and treated with restriction enzyme BamH1/XhoI. The resulting gene fragments were inserted into the corresponding identical restriction sites of pGex vector (GE Healthcare Life Science) to prepare an expression vector for transformation of E. coli BL21 (DE3) strain (Invitrogen). The transformed E. coli strain was inoculated to LB medium (1% Bacto tryptone, 0.5% yeast extract, 1% sodium chloride) and cultured until the optical density of the bacterial cells was about 0.5 at 600 nm and 37° C. Then, IPTG (isopropyl-β-D-thiogalactoside) was added thereto to a final concentration to 0.5 mM at 18° C. 16 hours after IPTG addition, the cells were subjected to centrifugation at 10,000×g for 10 mins and cell precipitates were collected. The cell precipitates were suspended in a buffer solution (30 mM tris-HCl (pH 7.5), 100 mM NaCl, 5% glycerol, 2 mM DTT) and the cells were smashed in an ice bath using a Sonic Dismembrator (Fisher, USA). The resulting solution was centrifuged at 16,000 rpm for 30 mins.
The supernatant obtained above was introduced to a pre-equilibrated GST column (Pharmacia, USA) and eluted by 5 mM glutachione. The effuent was subjected to SDS-PAGE and GSK-3β protein was collected. GST protein was cutt using thrombin. The GSK-3β protein thus obtained was diluted with a buffer solution (20 mM HEPES (pH 7.5), 5% glycerol, 2 mM DTT) until the concentration of NaCl reached 50 mM. The diluted solution was introduced to Mono S column (Pharmacia, USA) equilibrated with the above buffer solution and eluted with a aqueous NaCl while changing the concentration from 0 to 1 M NaCl, and GSK-3β protein was collected by a electrophoresis. The purified protein was used in the analysis for the activity for enzyme activity.
The enzyme reaction was conducted in a buffer solution (50 mM of tris-HCl (pH 7.5), 10 mM of MgCl2, 1 mM of EGTA, 1 mM of EDTA and 1 mM of DTT). 100 μM of phosho-CREB peptide (NEB, USA), 100 μM of ATP and 1 μCi of ^32P-ATP were added to the buffer solution as substrates. And then 100 nM of recombinant GSK-3β was added thereto and the mixture was reacted at 30° C. for 1 hour. The reaction was terminated by the addition of 5 μl of 5% phosphoric acid solution to 25 μl of the reaction mixture. The resulting solution was subjected to centrifugation at 15,000 for 10 mins and 20 μl of the supernatant thus obtained was dropped on whatman p81 filter paper. The filter paper was washed in 0.5% phosphoric acid solution for 10 mins. After repeating the washing 3 times, the filter paper was dried and its cpm (counter per mins) was assessed.
The test solution prepared above by dissolving a test compound in DMSO was added to the reaction solution in an amount of less than 5% based on the total reaction solution to analyze the capacity for enzyme inhibitory activity.

The target in another assay is T1, ERK-1 (Homo sapiens, UniProt P27361).
T1 construct: purchased Upstate
Nature of the assay: ERK-1 enzyme inhibition (MBP, 32P-ATP). The note with it: ERK-1, 100 μM ATP. How it is done:
(§1) The test solution prepared above by dissolving a test compound in DMSO was added to the reaction solution in an amount of less than 5% based on the total reaction solution to analyze the capacity for enzyme inhibitory activity. The cpm value obtained when the test compounds was present relative to the cpm value in the absence of the test compound was represented by percentage, and IC50 (μM) was determined as the concentration of the test compound required to inhibit the enzyme activity by 50% relatively to the control solution.
(§2) The compounds prepared in the Examples were dissolved in dimethylsulfoxide (DMSO) at a concentration of 12.5 mM to prepare test compounds and enzyme reaction was conducted in a buffer solution containing 50 mM of tris-HCl (pH 7.5), 10 mM of MgCl2, 1 mM of EGTA, 1 mM of EDTA and 1 mM of DTT. 0.33 mg/ml of MBP (Upstate), 100 μM of ATP and 0.25 μCi of ^32P-ATP were added to the buffer solution as substrates. 5 nM of recombinant Erk-1 (Upstate) was added the resulting mixture, and the mixture was reacted at 30° C. for 1 hour. The reaction was terminated by adding 5 μl of 5% phosphoric acid solution to 25 μl of the reaction mixture. 15 μl of the resulting solution was dropped on whatman p81 filter paper, which was then washed in 0.5% phosphoric acid solution for 10 mins. After repeating the washing 3 times, the filter paper was dried and cpm thereof was measured by a liquid scintillation counter (Packard, USA). Inhibitory capacities of the test compounds for the enzyme activity were assessed according to the same method as in GSK-3β analysis, and IC50 value was calculated.

Another assay has as its target T2, CDK-2/cycline A (Homo sapiens, UniProt P24941).
T2 construct: purchased Upstate
The assay can be described thus: CDK-2 enzyme inhibition (histone H1, 32P-ATP). How it is done:
as §2, with “0.33” for “The compounds prepared in the Examples were dissolved in dimethylsulfoxide (DMSO) at a concentration of 12.5 mM to prepare test compounds and enzyme reaction was conducted in a buffer solution containing 50 mM of tris-HCl (pH 7.5), 10 mM of MgCl2, 1 mM of EGTA, 1 mM of EDTA and 1 mM of DTT. 0.33”
The procedure of ERK-1 analysis was repeated to assess inhibitory capacities of the test compounds for the enzyme activity, except for using 2.5 μg of histone H1 (Upstate) and 100 nM of recombinant CDK-2/cycline A (Upstate).

Assay [1] deals with T3, p38 Mitogen-activated protein kinase (MAPK) (Homo sapiens, UniProt Q16539).
T3 construct: purchased Upstate
The assay can be described thus: p38 MAPK enzyme inhibition (histone H1, 32P-ATP). The note with it: p38 MAPK (recombinant p38a).
Method: The procedure of ERK-1 analysis was repeated to assess inhibitory capacities of the test compounds for the enzyme activity, except for using 2.5 μg of histone H1 (Upstate) and 5 nM of recombinant p38a (Upstate).

A further assay concerns the target T4, JNK-1 (Homo sapiens, UniProt P45983).
T4 construct: purchased Upstate
The assay can be described thus: JNK-1 enzyme inhibition (GST-ATF2, 32P-ATP).

The next assay deals with T5, KDR (Homo sapiens, UniProt P35968).
T5 construct: purchased Upstate
Nature of the assay: KDR enzyme inhibition (Biotin-polyE4Y, alphascreen). Conditions: 0.1 μM ATP. As to the method: as §1
The compounds prepared in the Examples were dissolved in dimethylsulfoxide (DMSO) at a concentration of 12.5 mM to prepare test solution, and enzyme reaction was conducted in a buffer solution containing 50 mM tris-HCl (pH 7.5), 5 mM MgCl2, 1 mM MnCl2, 0.01% tween-20 and 2 mM of DTT. 1 nM of Biotin-polyE4Y (Packard) and 0.1 μM of ATP were added to the buffer solution as substrates. 2 nM of recombinant KDR (Upstate) was added the resulting mixture and reaction was carried out at 30° C. for 1 hour. 10 μl of a diluted solution prepared by diluting alphascreen phosphotyrosine (T-Tyr-100, Packard) beads with a solution containing 6.25 mM of HEPES (pH 7.4), 250 mM of NaCl, 100 Mm EDTA, and 0.25% BSA was added to 15 μl of the KDR reaction solution. After a reaction at a room temperature for 1 hour, alphascreen signal was measured by a fusion a-FP (Packard). Inhibitory capacities of the test compounds for the enzyme activity were assessed according to the same method as in GSK-3β analysis, and IC50 value was calculated.
Background: In Alpha technology, singlet oxygen from a donor bead excites a nearby acceptor bead.

T5 sequence (P35968 20-1356, species assumed): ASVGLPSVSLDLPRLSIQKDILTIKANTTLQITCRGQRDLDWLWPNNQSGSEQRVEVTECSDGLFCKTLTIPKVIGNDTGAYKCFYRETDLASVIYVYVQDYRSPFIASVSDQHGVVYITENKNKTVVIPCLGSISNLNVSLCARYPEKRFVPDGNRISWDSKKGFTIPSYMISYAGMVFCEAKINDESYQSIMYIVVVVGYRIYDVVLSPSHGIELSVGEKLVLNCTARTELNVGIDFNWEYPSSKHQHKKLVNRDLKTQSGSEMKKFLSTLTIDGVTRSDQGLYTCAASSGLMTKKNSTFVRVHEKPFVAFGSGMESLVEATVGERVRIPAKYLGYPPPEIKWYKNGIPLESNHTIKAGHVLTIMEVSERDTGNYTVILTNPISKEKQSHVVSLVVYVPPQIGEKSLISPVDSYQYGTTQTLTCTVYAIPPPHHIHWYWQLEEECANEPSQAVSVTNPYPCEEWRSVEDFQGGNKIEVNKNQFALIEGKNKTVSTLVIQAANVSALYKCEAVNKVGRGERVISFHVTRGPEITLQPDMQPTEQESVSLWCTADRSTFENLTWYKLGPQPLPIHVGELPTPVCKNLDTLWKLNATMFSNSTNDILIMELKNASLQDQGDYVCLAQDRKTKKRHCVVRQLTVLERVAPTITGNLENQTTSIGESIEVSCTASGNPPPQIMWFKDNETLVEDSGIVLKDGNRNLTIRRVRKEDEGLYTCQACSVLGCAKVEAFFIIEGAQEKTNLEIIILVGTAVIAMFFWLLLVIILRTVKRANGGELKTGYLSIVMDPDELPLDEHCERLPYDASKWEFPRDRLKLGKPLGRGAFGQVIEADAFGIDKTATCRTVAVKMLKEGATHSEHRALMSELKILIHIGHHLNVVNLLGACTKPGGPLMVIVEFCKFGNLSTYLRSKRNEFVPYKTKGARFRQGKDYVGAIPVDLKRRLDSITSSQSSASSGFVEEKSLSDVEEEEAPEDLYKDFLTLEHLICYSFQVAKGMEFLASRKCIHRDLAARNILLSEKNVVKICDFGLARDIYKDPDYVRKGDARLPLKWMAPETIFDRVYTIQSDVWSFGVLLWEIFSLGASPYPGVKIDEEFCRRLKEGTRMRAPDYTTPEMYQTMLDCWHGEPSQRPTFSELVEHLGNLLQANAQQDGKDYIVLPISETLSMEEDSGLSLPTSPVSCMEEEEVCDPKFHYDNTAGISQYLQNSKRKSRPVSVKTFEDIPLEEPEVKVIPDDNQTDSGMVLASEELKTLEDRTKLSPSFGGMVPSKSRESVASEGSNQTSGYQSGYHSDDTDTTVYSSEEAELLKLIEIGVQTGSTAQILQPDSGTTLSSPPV
Chain of human GSK-3β (P49841 whole entry, the tested form may be a part): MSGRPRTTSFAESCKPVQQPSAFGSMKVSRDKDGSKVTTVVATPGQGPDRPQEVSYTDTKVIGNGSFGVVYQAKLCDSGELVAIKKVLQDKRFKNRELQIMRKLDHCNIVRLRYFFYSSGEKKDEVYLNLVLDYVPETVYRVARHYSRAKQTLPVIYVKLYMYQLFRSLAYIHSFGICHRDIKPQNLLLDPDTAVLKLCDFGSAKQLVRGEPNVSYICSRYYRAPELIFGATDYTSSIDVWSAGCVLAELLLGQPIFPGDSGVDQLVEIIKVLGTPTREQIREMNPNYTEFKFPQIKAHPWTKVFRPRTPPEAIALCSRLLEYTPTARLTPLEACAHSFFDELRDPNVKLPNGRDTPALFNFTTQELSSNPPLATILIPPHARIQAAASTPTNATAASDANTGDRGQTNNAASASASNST
T1 sequence (P27361 whole entry, species assumed): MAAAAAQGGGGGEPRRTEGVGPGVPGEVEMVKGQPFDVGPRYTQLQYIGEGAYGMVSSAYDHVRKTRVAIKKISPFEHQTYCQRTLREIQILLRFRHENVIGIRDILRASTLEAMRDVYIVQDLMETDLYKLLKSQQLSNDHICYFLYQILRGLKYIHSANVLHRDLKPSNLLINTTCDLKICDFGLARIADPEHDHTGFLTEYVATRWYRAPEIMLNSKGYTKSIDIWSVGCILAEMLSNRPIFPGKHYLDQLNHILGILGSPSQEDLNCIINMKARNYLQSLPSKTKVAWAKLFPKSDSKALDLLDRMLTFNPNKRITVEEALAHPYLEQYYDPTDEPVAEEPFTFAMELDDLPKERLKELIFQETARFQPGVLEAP
T3 sequence (Q16539 whole entry): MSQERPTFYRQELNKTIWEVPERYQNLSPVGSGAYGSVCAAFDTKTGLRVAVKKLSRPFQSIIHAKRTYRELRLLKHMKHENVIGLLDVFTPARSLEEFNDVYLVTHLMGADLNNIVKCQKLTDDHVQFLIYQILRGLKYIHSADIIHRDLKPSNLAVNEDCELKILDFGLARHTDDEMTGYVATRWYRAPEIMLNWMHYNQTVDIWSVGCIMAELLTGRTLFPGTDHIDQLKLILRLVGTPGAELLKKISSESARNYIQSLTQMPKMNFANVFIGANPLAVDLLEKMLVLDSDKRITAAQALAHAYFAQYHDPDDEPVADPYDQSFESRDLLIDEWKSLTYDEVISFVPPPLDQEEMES
T4 sequence (P45983 whole entry, species assumed): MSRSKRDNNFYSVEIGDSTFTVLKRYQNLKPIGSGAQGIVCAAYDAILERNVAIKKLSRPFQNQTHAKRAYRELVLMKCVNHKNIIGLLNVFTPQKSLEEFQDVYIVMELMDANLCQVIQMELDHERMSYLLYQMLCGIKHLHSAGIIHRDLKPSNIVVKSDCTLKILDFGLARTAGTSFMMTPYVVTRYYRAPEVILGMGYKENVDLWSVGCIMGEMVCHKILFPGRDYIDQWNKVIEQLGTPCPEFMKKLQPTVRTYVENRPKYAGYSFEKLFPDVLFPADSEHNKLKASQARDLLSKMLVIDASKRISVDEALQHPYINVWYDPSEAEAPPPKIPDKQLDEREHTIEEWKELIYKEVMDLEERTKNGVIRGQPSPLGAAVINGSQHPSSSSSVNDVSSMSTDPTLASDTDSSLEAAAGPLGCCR

As to `CCSc1ccncc1NC(=O)c1ccnc2[nH]c(-c3ccc(F)cc3)nc12` [Example 320, 2-(4-fluoro-phenyl)-3H-imidazo[4,5-b]pyridine-7-carboxylic acid(4-ethylsulfanyl-pyridin-3-yl)-amide], the IC50 (commonly the concentration at which inhibition is half-maximal) turned out to be 0.005 µM on human GSK-3β; 25.5 µM at ERK-1; 0.17 µM at CDK-2/cycline A; 50 µM in assay [1]; 14.5 µM on JNK-1; 0.29 µM on KDR.
